± gives the standard deviation of the averaged measurements.
How the values were obtained:
Assay in all cases: level (log10 ratio to DMSO vehicle control); higher = higher biomarker level / cell amount than vehicle control
Details in all cases: in DMSO
[1] = compound: C=CC(=O)OCC(F)(F)C(F)(F)C(F)(F)C(F)(F)C(F)(F)C(F)(F)C(F)(F)C(F)F [1H,1H,9H-Perfluorononyl acrylate]
Method: (§1)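 BioMAP Diversity Plus panel of 12 human primary cell co-culture systems (3C, 4H, LPS, SAg, BT, BF4T, BE3C, CASM3C, HDF3CGF, KF3CT, MyoF, Mphg). Compounds were added 1 h before stimulation and left for 24 h (MyoF 48 h; BT 72 h for soluble read-outs or 6 d for IgG). Biomarkers were read by ELISA, cytotoxicity by SRB, PBMC viability and proliferation by Alamar Blue. Each well value was divided by the mean of 8 DMSO control wells on the same plate and log10 transformed; duplicate blinded samples were tested at 4 concentrations.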

[2] = compound: Cc1ccc(S(=O)(=O)OCC(F)(F)C(F)(F)C(F)(F)C(F)(F)C(F)(F)C(F)F)cc1 [1H,1H,7H-Perfluoroheptyl 4-methylbenzenesulfonate]
Method: as §1

Tetrafluorosuccinic acid = compound: O=C(O)C(F)(F)C(F)(F)C(=O)O [Tetrafluorosuccinic acid]
Method: as §1

[3] = compound: O=P(O)(O)CCC(F)(F)C(F)(F)C(F)(F)C(F)(F)C(F)(F)C(F)(F)F [2-(Perfluorohexyl)ethylphosphonic acid]
Method: as §1

Perfluoropinacol = compound: OC(C(F)(F)F)(C(F)(F)F)C(O)(C(F)(F)F)C(F)(F)F [Perfluoropinacol]
Method: as §1

[4] = compound: OCC(F)(F)C(F)(F)C(F)(F)C(F)(F)C(F)(F)C(F)(F)C(F)(F)C(F)(F)C(F)(F)C(F)(F)C(F)(F)F [11:1 Fluorotelomer alcohol]
Method: as §1

[5] = compound: OCC(F)(F)C(F)(F)C(F)(F)C(F)(F)C(F)(F)C(F)(F)C(F)(F)C(F)(F)CO [1H,1H,10H,10H-Perfluorodecane-1,10-diol]
Method: as §1

| Test System | level (log10) ([1]; 6700 nM) | level (log10) ([1]; 20000 nM) | level (log10) ([1]; 60000 nM) | level (log10) ([2]; 6700 nM) | level (log10) ([2]; 20000 nM) | level (log10) ([2]; 60000 nM) | level (log10) (Tetrafluorosuccinic acid; 6700 nM) | level (log10) (Tetrafluorosuccinic acid; 20000 nM) | level (log10) (Tetrafluorosuccinic acid; 60000 nM) | level (log10) ([3]; 6700 nM) | level (log10) ([3]; 20000 nM) | level (log10) ([3]; 60000 nM) | level (log10) (Perfluoropinacol; 6700 nM) | level (log10) (Perfluoropinacol; 20000 nM) | level (log10) ([4]; 1100 nM) | level (log10) ([4]; 3300 nM) | level (log10) ([4]; 10000 nM) | level (log10) ([5]; 6700 nM) | level (log10) ([5]; 20000 nM) | level (log10) ([5]; 60000 nM) |
| --- | --- | --- | --- | --- | --- | --- | --- | --- | --- | --- | --- | --- | --- | --- | --- | --- | --- | --- | --- | --- |
| BE3C:IL-1alpha | -0.01 ± 0.0085 | -0.021 ± 0.018 | -0.03 ± 0.021 | 0.01 ± 0.0085 | -0.003 ± 0.018 | 0.071 ± 0.061 | 0.019 ± 0.013 | 0.009 ± 0.02 | 0.0385 ± 0.012 | -0.01 ± 0.0014 | -0.0245 ± 0.005 | -0.007 ± 0.023 | -0.041 ± 0.021 | -0.093 ± 0.0071 | -0.011 ± 0.018 | -0.0325 ± 0.0021 | -0.029 ± 0.02 | -0.0035 ± 0.015 | -0.022 ± 0.0099 | -0.026 |
| BF4T:CD106/VCAM-1 | -0.007 ± 0.0071 | -0.0165 ± 0.04 | 0.0185 ± 0.066 | 0.009 ± 0.042 | 0.024 ± 0.0014 | -0.0055 ± 0.04 | 0.0205 ± 0.0092 | -0.0155 ± 0.029 | -0.033 ± 0.021 | -0.0195 ± 0.03 | -0.0165 ± 0.016 | 0.0055 ± 0.047 | -0.0455 ± 0.0021 | -0.096 | 0.0045 ± 0.016 | -0.021 ± 0.025 | -0.016 ± 0.02 | -0.012 ± 0.023 | -0.139 ± 0.037 | -0.145 |
| SAg:CCL2/MCP-1 | -0.0425 ± 0.015 | -0.0565 ± 0.005 | -0.033 ± 0.13 | -0.024 ± 0.016 | -0.027 ± 0.011 | -0.021 ± 0.023 | -0.006 ± 0.02 | -0.0095 ± 0.0035 | -0.0085 ± 0.0064 | 0.0075 ± 0.0092 | -0.006 ± 0.016 | 0.041 | 0.078 ± 0.018 | -0.096 ± 0.0085 | 0.0095 ± 0.0078 | -0.013 ± 0.044 | 0.0225 ± 0.039 | -0.0145 ± 0.0092 | -0.02 ± 0.0042 | -0.008 |
| 4H:CD87/uPAR | -0.024 ± 0.035 | -0.043 ± 0.028 | -0.034 ± 0.061 | 0.005 ± 0.0071 | 0.011 ± 0.02 | -0.117 ± 0.032 | -0.0355 ± 0.025 | -0.043 ± 0.035 | -0.036 ± 0.089 | -0.0345 ± 0.018 | -0.0165 ± 0.015 | -0.0495 ± 0.011 | -0.117 ± 0.022 | -0.226 ± 0.029 | -0.0285 ± 0.037 | -0.0415 ± 0.028 | 0 ± 0.059 | -0.057 ± 0.0099 | -0.083 ± 0.0042 | -0.097 |
| BE3C:CXCL9/MIG | 0.008 ± 0.0028 | 0.0055 ± 0.0078 | 0.0035 ± 0.0021 | 0.005 ± 0.016 | -0.001 ± 0.0028 | 0.0005 ± 0.021 | 0.005 ± 0.0071 | 0 ± 0.0085 | 0.0075 ± 0.0092 | -0.008 ± 0.0057 | -0.0075 ± 0.0021 | 0.003 ± 0.02 | -0.0045 ± 0.015 | 0.002 ± 0.0071 | -0.0195 ± 0.00071 | -0.03 ± 0.0028 | -0.0385 ± 0.022 | -0.0105 ± 0.0021 | -0.0495 ± 0.0021 | -0.53 |
| BT:sIL-2 | 0.118 ± 0.042 | -0.0285 ± 0.11 | -0.514 ± 0.61 | 0.0615 ± 0.0021 | 0.0305 ± 0.042 | -0.0025 ± 0.14 | -0.0195 ± 0.035 | 0.03 ± 0.083 | 0.0825 ± 0.13 | 0.076 ± 0.013 | 0.023 ± 0.0071 | 0.0355 ± 0.11 | 0.107 ± 0.059 | 0.0335 ± 0.071 | 0.108 ± 0.058 | 0.0255 ± 0.083 | -0.02 ± 0.073 | 0.002 ± 0.035 | 0.0135 ± 0.005 | -0.482 |
| BE3C:CXCL8/IL-8 | -0.0165 ± 0.016 | -0.012 ± 0.013 | -0.004 ± 0.024 | -0.0345 ± 0.042 | -0.12 ± 0.059 | -0.126 ± 0.028 | 0.0325 ± 0.052 | 0.0315 ± 0.071 | 0.0525 ± 0.0064 | -0.064 ± 0.017 | -0.0635 ± 0.0064 | -0.0555 ± 0.06 | -0.049 ± 0.0014 | -0.203 ± 0.021 | -0.086 ± 0.011 | -0.158 ± 0.055 | -0.0975 ± 0.042 | -0.078 ± 0.0099 | -0.098 ± 0.025 | -0.127 |
| BT:sIL-6 | -0.073 ± 0.018 | -0.269 ± 0.07 | -0.693 ± 0.5 | 0.0155 ± 0.011 | -0.0245 ± 0.069 | -0.0975 ± 0.021 | -0.0225 ± 0.0064 | -0.018 ± 0.025 | -0.033 ± 0.011 | 0.0645 ± 0.013 | -0.007 ± 0.0042 | 0.0015 ± 0.025 | -0.073 ± 0.051 | -0.0655 ± 0.019 | 0.209 ± 0.0092 | 0.116 ± 0.034 | 0.083 ± 0.085 | -0.0075 ± 0.011 | -0.0405 ± 0.032 | -0.673 |
| 4H:VEGFR2 | -0.018 ± 0.014 | -0.009 ± 0.057 | 0.0045 ± 0.03 | 0.005 ± 0.018 | 0.017 ± 0.011 | 0.01 | -0.032 ± 0.014 | -0.027 | 0.007 ± 0.11 | 0.0465 ± 0.015 | 0.0335 ± 0.0035 | -0.002 ± 0.027 | -0.02 ± 0.023 | -0.138 ± 0.064 | -0.027 ± 0.023 | -0.0135 ± 0.033 | -0.008 ± 0.048 | -0.0455 ± 0.07 | -0.0125 ± 0.0092 | 0.055 |
| 4H:CCL2/MCP-1 | -0.0255 ± 0.0064 | -0.0105 ± 0.028 | 0.0245 ± 0.019 | -0.0455 ± 0.023 | -0.098 ± 0.0071 | -0.178 ± 0.05 | -0.037 ± 0.021 | -0.04 ± 0.028 | -0.0055 ± 0.086 | -0.0295 ± 0.0092 | -0.031 ± 0.025 | -0.0215 ± 0.054 | -0.058 ± 0.023 | -0.168 ± 0.025 | 0.0335 ± 0.033 | 0.0495 ± 0.00071 | 0.0835 ± 0.023 | -0.0685 ± 0.0064 | -0.105 ± 0.018 | -0.092 |
| 4H:SRB | -0.008 ± 0.0042 | -0.008 ± 0.0014 | -0.0235 ± 0.0021 | 0.0005 ± 0.026 | -0.002 ± 0.011 | -0.0605 ± 0.0078 | -0.0005 ± 0.023 | 0.001 ± 0.0085 | -0.0185 ± 0.011 | -0.005 ± 0.024 | -0.0065 ± 0.021 | -0.0005 ± 0.032 | -0.0345 ± 0.015 | -0.13 ± 0.0078 | -0.0105 ± 0.0092 | -0.0195 ± 0.0035 | -0.0005 ± 0.025 | -0.0085 ± 0.011 | -0.026 ± 0.014 | -0.153 |
| LPS:sTNF-alpha | 0.085 ± 0.028 | 0.0465 ± 0.042 | 0.004 ± 0.086 | 0.003 ± 0.0057 | -0.006 ± 0.016 | -0.0035 ± 0.0064 | -0.0025 ± 0.018 | 0.0025 ± 0.011 | 0.009 ± 0.011 | 0.008 ± 0.0085 | 0.0105 ± 0.026 | 0.007 ± 0.0042 | -0.0005 ± 0.025 | 0.008 ± 0.03 | 0.0075 ± 0.012 | -0.0485 ± 0.013 | -0.105 ± 0.08 | -0.0915 ± 0.069 | -0.043 ± 0.0085 | -0.023 |
| BT:Secreted IgG | -0.011 ± 0.027 | -0.0185 ± 0.039 | -0.412 ± 0.43 | 0.006 ± 0.018 | -0.019 ± 0.035 | -0.22 ± 0.18 | -0.0035 ± 0.033 | 0.0055 ± 0.011 | 0.0155 ± 0.0035 | 0.0125 ± 0.0021 | 0.002 ± 0.0099 | -0.046 ± 0.047 | -0.322 ± 0.02 | -1.36 | 0.007 ± 0.025 | 0.0025 ± 0.033 | -0.014 ± 0.054 | -0.0135 ± 0.005 | -0.0415 ± 0.011 | -0.82 |
| BT:sTNF-alpha | -0.111 ± 0.039 | -0.281 ± 0.065 | -0.827 ± 0.71 | 0.102 ± 0.067 | 0.0055 ± 0.084 | 0.084 ± 0.069 | -0.0875 ± 0.14 | -0.076 ± 0.13 | -0.0795 ± 0.054 | 0.114 ± 0.04 | 0.0475 ± 0.018 | 0.048 ± 0.24 | 0.0425 ± 0.061 | -0.146 ± 0.015 | -0.057 ± 0.031 | -0.127 ± 0.0064 | -0.0825 ± 0.079 | -0.017 ± 0.085 | -0.007 ± 0.031 | -0.762 |

Reference: the supplement of paper PMC10331698
